# Source: patent publication US9000044B2, “Substituted naphthylacetic acids” (Hoffmann-La Roche Inc., priority 2012, dated 2015)
# Molecular target: human CRTH2 (Homo sapiens (Human), UniProt Q9Y5Y4)
# Assay: Calcium Flux Assay Using Fluorometric Imaging Plate Reader (FLIPR)
# Assay type: cell-based
# Details: CHO-K1 cells with G-alpha 16 and human CRTH2; inhibition of DK-PGD2 ligand-induced Ca2+ flux
# Method: Calcium Flux Assay Using Fluorometric Imaging Plate Reader (FLIPR)
# Cell Culture Conditions: CHO-K1 cells previously transfected with G-alpha 16 were subsequently transfected with the human CRTH2 receptor and the neomycin resistance gene. Following selection in 800 μg/mL G418 (geneticin), individual clones were assayed for their receptor expression based on staining with an anti human CRTH2 IgG, followed by assaying for their response to 13,14-dihydro-15-keto Prostaglandin D2 (DK-PDG2) (ligand) in the Ca^2+ Flux assay. Positive clones were then cloned by limiting dilution cloning. The transfected cells were cultured in Ham's F-12 medium supplemented with 10% fetal bovine serum, 2 mM glutamine, 100 U/mL penicillin/100 μg/mL streptomycin, 200 μg/mL hygromycin B, and 800 μg/mL G418 (geneticin). Cells were harvested with trypsin-EDTA (trypsin-ethylenediaminetetraacetic acid) and counted using ViaCount® reagent (from Guava Technologies, Inc. which contains two DNA-binding dyes that enable the reagent user to distinguish between viable and non-viable cells). The cell suspension volume was adjusted to 2.5×10^5 cells/mL with complete growth media. Aliquots of 50 μL were dispensed into BD Falcon™ 384 well black/clear microplates (from BD Biosciences, a division of Becton, Dickinson and Company) and the microplates were placed in a 37° C. CO2 incubator overnight. The following day, the microplates were used in the assay.
# Loading Buffer containing dye (from the FLIPR® Calcium 3 Assay Kit from Molecular Devices, a division of MDS Analytical Technologies and MDS Inc.) was prepared by dissolving the contents of one bottle into 200 mL Hank's Balanced Salt Solution containing 20 mM HEPES (4-(2-hydroxyethyl)-1-piperazineethanesulfonic acid) and 2.5 mM probenecid. Growth media was removed from the cell plates and 25 μL of Hank's Balanced Salt Solution (HBSS) containing 20 mM HEPES, 0.05% BSA and 2.5 mM probenecid was added to each well followed by 25 μL of diluted dye using a Multidrop dispenser. The plates were then incubated for 1 hour at 37° C.
# During the incubation, test compound plates were prepared by adding 90 μL of HBSS/20 mM HEPES/0.005% BSA buffer to the 2 μL of serial diluted compounds. To prepare serial diluted compounds, 20 mM stocks of compounds were dissolved in 100% DMSO. The compound dilution plate was set up as follows: well #1 received 5 μL of compound plus 10 μL of DMSO. Wells 2-10 received 10 μL of DMSO. 5 μL was mixed and transferred from well #1 into well #2. 1:3 serial dilutions were continued out 10 steps. 2 μL of diluted compound was transferred into duplicate wells of a 384 well “assay plate” and then 90 μL of buffer was added.
# After incubation, both the cell and “assay plate” plates were brought to the fluorometric imaging plate reader (FLIPR®) and 20 μL of the diluted compounds were transferred to the cell plates by the FLIPR®. Plates were then incubated for 1 hour at room temperature. […] During the assay, fluorescence readings were taken simultaneously from all 384 wells of the cell plate every 1.5 seconds. Five readings were taken to establish a stable baseline, then 20 μL of sample was rapidly (30 μL/sec) and simultaneously added to each well of the cell plate. The fluorescence was continuously monitored before, during and after sample addition for a total elapsed time of 100 seconds. Responses (increase in peak fluorescence) in each well following agonist addition were determined. The initial fluorescence reading from each well, prior to ligand stimulation, was used as a zero baseline value for the data from that well. The responses were expressed as % inhibition of the buffer control.
# Sequence of human CRTH2 (Q9Y5Y4 whole entry): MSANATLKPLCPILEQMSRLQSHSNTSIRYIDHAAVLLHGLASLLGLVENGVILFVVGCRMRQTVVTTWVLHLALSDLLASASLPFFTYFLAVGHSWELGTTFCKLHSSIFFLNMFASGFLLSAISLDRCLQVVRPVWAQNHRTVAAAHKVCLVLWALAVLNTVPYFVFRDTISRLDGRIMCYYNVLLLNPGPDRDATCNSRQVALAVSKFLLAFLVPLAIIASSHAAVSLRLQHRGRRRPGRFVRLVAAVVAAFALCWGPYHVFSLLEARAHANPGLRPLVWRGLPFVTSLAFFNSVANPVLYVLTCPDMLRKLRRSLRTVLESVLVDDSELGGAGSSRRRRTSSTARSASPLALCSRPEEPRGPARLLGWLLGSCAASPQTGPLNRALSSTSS
row,Compound,IC50 [nM]
1,"Cc1c(CC(=O)O)cc2ccc(Cl)cc2c1-c1ccc(S(=O)(=O)c2ccc(Cl)cc2)cc1 [Example 17, {6-Chloro-4-[4-(4-chloro-benzenesulfonyl)-phenyl]-3-methyl-naphthalen-2-yl}-acetic acid]",7
2,"Cc1c(CC(=O)O)cc2ccc(Cl)cc2c1-c1ccc(S(=O)(=O)c2c(F)cccc2F)cc1 [Example 24, {6-Chloro-4-[4-(2,6-difluoro-benzenesulfonyl)-phenyl]-3-methyl-naphthalen-2-yl}-acetic acid]",312
3,"Cc1c(CC(=O)O)cc2ccc(F)cc2c1-c1ccc(S(=O)(=O)c2ccccc2C(F)(F)F)cc1 [Example 5, {6-Fluoro-3-methyl-4-[4-(2-trifluoromethyl-benzenesulfonyl)-phenyl]-naphthalen-2-yl}-acetic acid]",1.3
4,"CCN(CC)S(=O)(=O)c1ccc(-c2c(C)c(CC(=O)O)cc3ccc(Cl)cc23)cc1 [Example 35, [6-Chloro-4-(4-diethylsulfamoyl-phenyl)-3-methyl-naphthalen-2-yl]-acetic acid]",0.5
5,"Cc1c(CC(=O)O)cc2ccc(Cl)cc2c1-c1ccc(S(=O)(=O)c2cc(F)cc(F)c2)cc1 [Example 27, {6-Chloro-4-[4-(3,5-difluoro-benzenesulfonyl)-phenyl]-3-methyl-naphthalen-2-yl}-acetic acid]",0.7
6,"Cc1ccc(NS(=O)(=O)c2ccc(-c3c(C)c(CC(=O)O)cc4ccc(Cl)cc34)cc2)cc1 [Example 29, [6-Chloro-3-methyl-4-(4-p-tolylsulfamoyl-phenyl)-naphthalen-2-yl]-acetic acid]",2.7
7,"Cc1c(CC(=O)O)cc2ccc(Cl)cc2c1-c1ccc(S(=O)(=O)Nc2ccc(F)cc2)cc1 [Example 28, {6-Chloro-4-[4-(4-fluoro-phenylsulfamoyl)-phenyl]-3-methyl-naphthalen-2-yl}-acetic acid]",1.1
8,"Cc1c(Cl)cccc1NS(=O)(=O)c1ccc(-c2c(C)c(CC(=O)O)cc3ccc(F)cc23)cc1 [Example 44, {4-[4-(3-Chloro-2-methyl-phenylsulfamoyl)-phenyl]-6-fluoro-3-methyl-naphthalen-2-yl}-acetic acid]",0.9
9,"Cc1c(CC(=O)O)cc2ccc(F)cc2c1-c1ccc(S(=O)(=O)N2CCCCC2)cc1 [Example 47, {6-Fluoro-3-methyl-4-[4-(piperidine-1-sulfonyl)-phenyl]-naphthalen-2-yl}-acetic acid]",4.1
10,"Cc1c(CC(=O)O)cc2ccc(F)cc2c1-c1ccc(S(=O)(=O)c2cccc(Cl)c2)cc1 [Example 3, {4-[4-(3-Chloro-benzenesulfonyl)-phenyl]-6-fluoro-3-methyl-naphthalen-2-yl}-acetic acid]",3.9
11,"Cc1c(CC(=O)O)cc2ccc(Cl)cc2c1-c1ccc(S(=O)(=O)c2cc(Cl)ccc2Cl)cc1 [Example 22, {6-Chloro-4-[4-(2,5-dichloro-benzenesulfonyl)-phenyl]-3-methyl-naphthalen-2-yl}-acetic acid]",4.4
12,"COc1ccc(CN(C(C)C)S(=O)(=O)c2ccc(-c3c(C)c(CC(=O)O)cc4ccc(F)cc34)cc2)cc1 [Example 53, (6-Fluoro-4-{4-[isopropyl-(4-methoxy-benzyl)-sulfamoyl]-phenyl}-3-methyl-naphthalen-2-yl)-acetic acid]",1.3
13,"Cc1c(CC(=O)O)cc2ccc(F)cc2c1-c1ccc(S(=O)(=O)c2ccccc2OC(F)(F)F)cc1 [Example 6, {6-Fluoro-3-methyl-4-[4-(2-trifluoromethoxy-benzenesulfonyl)-phenyl]-naphthalen-2-yl}-acetic acid]",1
14,"Cc1c(CC(=O)O)cc2ccc(Cl)cc2c1-c1ccc(S(=O)(=O)c2ccccc2Cl)cc1 [Example 15, {6-Chloro-4-[4-(2-chloro-benzenesulfonyl)-phenyl]-3-methyl-naphthalen-2-yl}-acetic acid]",9.2
15,"Cc1c(CC(=O)O)cc2ccc(F)cc2c1-c1ccc(S(=O)(=O)c2ccccc2Cl)cc1 [Example 2, {4-[4-(2-Chloro-benzenesulfonyl)-phenyl]-6-fluoro-3-methyl-naphthalen-2-yl}-acetic acid]",0.7
